Data from ChEMBL document CHEMBL1201862, “PubChem BioAssay data set” (2004).
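Briefly, cells in 96-well plates were exposed to five compound concentrations for 48 h, and endpoints were estimated by linear interpolation. Abbreviation: GI50, concentration required for 50% inhibition of growth.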 Calls of active or inactive are those of the source. No stated cut-off is given here; in the data, active = GI50 up to about 1.1 µM and inactive = higher.

How the values were obtained:
Assay in all cases: NCI anticancer screen, dose series, 48 h
[1] = system: 786-0
[2] = system: ACHN
[3] = system: EKVX
[4] = system: HCC 2998
[5] = system: HL-60
[6] = system: HOP-92
[7] = system: K562
[8] = system: NCI/ADR-RES
[9] = system: OVCAR-5
[10] = system: RPMI-8226
[11] = system: RXF 393
[12] = system: SF-295
[13] = system: SF-539
[14] = system: SK-MEL-5
[15] = system: SK-OV-3
[16] = system: SNB-19
[17] = system: SNB-75
[18] = system: SR
[19] = system: UACC-62
[20] = system: OVCAR-4

| SMILES | GI50 [1] | GI50 [2] | GI50 [3] | GI50 [4] | GI50 [5] | GI50 [6] | GI50 [7] | GI50 [8] | GI50 [9] | GI50 [10] | GI50 [11] | GI50 [12] | GI50 [13] | GI50 [14] | GI50 [15] | GI50 [16] | GI50 [17] | GI50 [18] | GI50 [19] | GI50 [20] |
| --- | --- | --- | --- | --- | --- | --- | --- | --- | --- | --- | --- | --- | --- | --- | --- | --- | --- | --- | --- | --- |
| CCOC(=O)NC(NNc1ccc([N+](=O)[O-])cc1[N+](=O)[O-])(C(F)(F)F)C(F)(F)F | 43.9 µM (inactive) | 43.3 µM (inactive) | 41.8 µM (inactive) | 23.3 µM (inactive) | 14.4 µM (inactive) | 12.7 µM (inactive) | 25.1 µM (inactive) | 33.3 µM (inactive) | 46 µM (inactive) | 17.9 µM (inactive) | 27.8 µM (inactive) | 59.7 µM (inactive) | 22.5 µM (inactive) | 60.8 µM (inactive) | 23.4 µM (inactive) | 35.2 µM (inactive) | 45.7 µM (inactive) | 5.79 µM (inactive) | 74.5 µM (inactive) | – |
| COc1ccc(CCCCl)c(C2=NCCc3cc(OC)c(OC)cc32)c1 | 94.8 µM (inactive) | 68.1 µM (inactive) | 53.6 µM (inactive) | 48.4 µM (inactive) | 27.5 µM (inactive) | 20.6 µM (inactive) | 28.3 µM (inactive) | 46.8 µM (inactive) | > 100 µM (inactive) | 6.87 µM (inactive) | 54.7 µM (inactive) | 48.5 µM (inactive) | 79.3 µM (inactive) | 26.1 µM (inactive) | > 100 µM (inactive) | 30 µM (inactive) | 42.3 µM (inactive) | > 100 µM (inactive) | 32.8 µM (inactive) | > 100 µM (inactive) |
| Cc1ccc(Cl)c2c1NC(=O)/C2=N\Nc1ccccc1[N+](=O)[O-] | 28.8 µM (inactive) | 76.7 µM (inactive) | 40.2 µM (inactive) | 36.9 µM (inactive) | 25.5 µM (inactive) | 42.5 µM (inactive) | 39.4 µM (inactive) | 57.1 µM (inactive) | > 100 µM (inactive) | 52.8 µM (inactive) | > 100 µM (inactive) | 24.1 µM (inactive) | 21.3 µM (inactive) | – | > 100 µM (inactive) | 68.4 µM (inactive) | 54.5 µM (inactive) | 8.22 µM (inactive) | 31.4 µM (inactive) | 96.6 µM (inactive) |
| COc1ccc(C(=O)NC2=C(Cl)C(=O)c3ccccc3C2=O)cc1 | 5.36 µM (inactive) | 0.472 µM (active) | 5.3 µM (inactive) | 4.49 µM (inactive) | 0.336 µM (active) | 1.36 µM (inactive) | 1.36 µM (inactive) | 2.07 µM (inactive) | 2.7 µM (inactive) | 0.579 µM (active) | 0.995 µM (active) | 3.85 µM (inactive) | 1.66 µM (inactive) | 1.58 µM (inactive) | 2.23 µM (inactive) | 5.16 µM (inactive) | 2.56 µM (inactive) | 1.61 µM (inactive) | 0.471 µM (active) | 2.17 µM (inactive) |
| COC(=O)c1cc2c(cc1C(=O)OC)[C@@]1(C)CCCC(C)(C)C1CC2 (stereo partly specified) | 19.5 µM (inactive) | 20.7 µM (inactive) | 13.3 µM (inactive) | 17.4 µM (inactive) | 8.77 µM (inactive) | 9.91 µM (inactive) | 13.8 µM (inactive) | 16.3 µM (inactive) | 18.3 µM (inactive) | 10.7 µM (inactive) | 10.1 µM (inactive) | 16.3 µM (inactive) | 22 µM (inactive) | 16.2 µM (inactive) | – | 23.7 µM (inactive) | 30 µM (inactive) | 15.1 µM (inactive) | 12.2 µM (inactive) | 22.4 µM (inactive) |
| Cc1nn(C(=O)c2ccncc2)c2c1C(c1ccccc1[N+](=O)[O-])SC(=N)N2 (stereo unspecified) | > 10 µM (inactive) | > 10 µM (inactive) | > 10 µM (inactive) | > 10 µM (inactive) | > 10 µM (inactive) | > 10 µM (inactive) | > 10 µM (inactive) | > 10 µM (inactive) | > 10 µM (inactive) | > 10 µM (inactive) | > 10 µM (inactive) | > 10 µM (inactive) | > 10 µM (inactive) | > 10 µM (inactive) | – | > 10 µM (inactive) | > 10 µM (inactive) | > 10 µM (inactive) | > 10 µM (inactive) | > 10 µM (inactive) |
| O=C(/C=N/O)c1c(-c2ccccc2)[nH]c(-c2ccccc2)c1-c1ccccc1 | 54.1 µM (inactive) | 16 µM (inactive) | 3.71 µM (inactive) | 34 µM (inactive) | 5.98 µM (inactive) | 14 µM (inactive) | 14.1 µM (inactive) | 6.78 µM (inactive) | 0.228 µM (active) | 5.35 µM (inactive) | 12.5 µM (inactive) | 14.3 µM (inactive) | 13.2 µM (inactive) | 16.2 µM (inactive) | 16.1 µM (inactive) | 15.3 µM (inactive) | 18.3 µM (inactive) | 0.0481 µM (active) | 15.2 µM (inactive) | 13.6 µM (inactive) |
| COC(=O)c1c(C)cccc1C1CN=NC12Cc1c(C)cccc1C2=O (stereo unspecified) | > 100 µM (inactive) | 79.3 µM (inactive) | 24.8 µM (inactive) | 57.8 µM (inactive) | 34.9 µM (inactive) | 19.9 µM (inactive) | 37.2 µM (inactive) | 59.6 µM (inactive) | > 100 µM (inactive) | 46.5 µM (inactive) | > 100 µM (inactive) | 51.2 µM (inactive) | > 100 µM (inactive) | 53 µM (inactive) | > 100 µM (inactive) | > 100 µM (inactive) | 64.1 µM (inactive) | > 100 µM (inactive) | 40.1 µM (inactive) | 35.7 µM (inactive) |
| COc1ccc(Cc2nc3cc(C(F)(F)F)ccc3n2C[C@@H]2CCCN3CCCCC23)cc1 (stereo partly specified) | 5.55 µM (inactive) | 6.75 µM (inactive) | 13.6 µM (inactive) | 2 µM (inactive) | 4.81 µM (inactive) | 5.62 µM (inactive) | 13.7 µM (inactive) | 14.2 µM (inactive) | 13.7 µM (inactive) | 11.6 µM (inactive) | 5.4 µM (inactive) | 5.82 µM (inactive) | 13.5 µM (inactive) | 6.92 µM (inactive) | 15.1 µM (inactive) | 13.4 µM (inactive) | 27.4 µM (inactive) | 3.93 µM (inactive) | 5.69 µM (inactive) | 11.7 µM (inactive) |
| CCOS(=O)(=O)c1ccc(-c2c3nc(c(-c4ccc(S(=O)(=O)OCC)cc4)c4ccc([nH]4)c(-c4ccc(S(=O)(=O)OCC)cc4)c4nc(c(-c5ccc(S(=O)(=O)OCC)cc5)c5ccc2[nH]5)C=C4)C=C3)cc1 | > 31.6 µM (inactive) | > 31.6 µM (inactive) | > 31.6 µM (inactive) | > 31.6 µM (inactive) | > 31.6 µM (inactive) | > 100 µM (inactive) | > 10 µM (inactive) | > 31.6 µM (inactive) | > 31.6 µM (inactive) | > 31.6 µM (inactive) | 17.2 µM (inactive) | > 31.6 µM (inactive) | 8.13 µM (inactive) | > 31.6 µM (inactive) | > 31.6 µM (inactive) | > 31.6 µM (inactive) | > 10 µM (inactive) | > 31.6 µM (inactive) | > 31.6 µM (inactive) | > 31.6 µM (inactive) |
| COc1cc2cc(C(=O)N3C[C@H](CCl)c4c3cc(O)c3ccccc43)[nH]c2c(OC)c1OC | 0.0861 µM (active) | 0.0393 µM (active) | 0.31 µM (active) | 0.16 µM (active) | < 0.01 µM (active) | 0.309 µM (active) | 0.25 µM (active) | 0.136 µM (active) | 0.264 µM (active) | 0.121 µM (active) | 0.0459 µM (active) | 0.107 µM (active) | 0.055 µM (active) | 0.0137 µM (active) | 0.515 µM (active) | 0.246 µM (active) | 0.184 µM (active) | 0.0224 µM (active) | 0.106 µM (active) | 0.261 µM (active) |
| CNC(=O)N(CCC#N)CCN(C(=O)N(C)C)c1ccccc1 | > 100 µM (inactive) | > 100 µM (inactive) | > 100 µM (inactive) | > 100 µM (inactive) | > 100 µM (inactive) | > 100 µM (inactive) | > 100 µM (inactive) | > 100 µM (inactive) | > 100 µM (inactive) | > 100 µM (inactive) | > 100 µM (inactive) | > 100 µM (inactive) | > 100 µM (inactive) | > 100 µM (inactive) | > 100 µM (inactive) | > 100 µM (inactive) | > 100 µM (inactive) | > 100 µM (inactive) | > 100 µM (inactive) | > 100 µM (inactive) |
| c1ccc([P+](CCCCCCCC[P+](c2ccccc2)(c2ccccc2)c2ccccc2)(c2ccccc2)c2ccccc2)cc1 | 16.6 µM (inactive) | 58.9 µM (inactive) | > 61.5 µM (inactive) | 21.3 µM (inactive) | 1.03 µM (active) | 3.07 µM (inactive) | 3.6 µM (inactive) | > 100 µM (inactive) | 11.2 µM (inactive) | 1.87 µM (inactive) | 31.6 µM (inactive) | 6.53 µM (inactive) | 2.37 µM (inactive) | 8.05 µM (inactive) | 17.3 µM (inactive) | 0.396 µM (active) | 0.307 µM (active) | 23 µM (inactive) | 24.1 µM (inactive) | 6.04 µM (inactive) |
| COc1cc2c3c(n(C)c(=O)c2cc1OC)-c1cc2c(cc1C3=O)OCO2 | 16.9 µM (inactive) | 1.01 µM (active) | 35.3 µM (inactive) | > 80.5 µM (inactive) | 22 µM (inactive) | 38.2 µM (inactive) | 6.87 µM (inactive) | 41.9 µM (inactive) | 54 µM (inactive) | 71.3 µM (inactive) | 30.3 µM (inactive) | 0.871 µM (active) | 8.75 µM (inactive) | 9.2 µM (inactive) | 11.3 µM (inactive) | 27.1 µM (inactive) | 3.73 µM (inactive) | 0.105 µM (active) | 1.7 µM (inactive) | > 100 µM (inactive) |
